For one assay, the system named is A2780. The assay is described as follows: cytotoxic effect in vitro on human ovarian carcinoma A2780. Format: cell-based. The note with it: after 1 hour from the drug exposure. The protocol: (§1) The compounds of formula (I) were tested for their cytotoxic effect "in vitro" on various tumor cell lines, among which murine leukemia L1210, human ovarian carcinoma A2780 and the respective cisplatin resistant sublines L1210/CDDP and A2780/CDDP.
(§2) a) IC50 (concentration of the drug expressed as ([…] which causes a 50% inhibition of the cell growth) determined after 2 hours from the drug exposure.
(§3) d), e) IC50 determined after 1 hour from the drug exposure in the non resistant and in the resistant cell lines, receptively.

Another assay deals with A2780/CDDP. The assay is described as follows: cytotoxic effect in vitro on cisplatin resistant subline A2780/CDDP. Format: cell-based, human. The note with it: after 1 hour from the drug exposure, resistant line. The protocol: as §1, §2, §3
The subject of a further assay is L1210/CDDP. The assay is described as follows: cytotoxic effect in vitro on cisplatin resistant subline L1210/CDDP. Format: cell-based, murine. Conditions: after 72 hours from the drug exposure, resistant line. The protocol: as §1, §2
b), c) IC50 determined after 72 hours from the drug exposure in the non resistant and in the resistant cell lines, receptively.

The next assay deals with L1210CDDP. The assay is described as follows: in vivo antitumor test, L1210/CDDP tumor cells inoculated ip in mouse. Conditions: ip 24, 120 and 216 hours after tumor inoculation. The protocol:
In addition, the compounds of the invention were tested in an "in vivo" test in which L1210 and L1210/CDDP tumor cells are inoculated intraperitoneally (ip) in a mouse and the compound is administered ip 24, 120 and 216 hours after tumor inoculation.
% T/C=[(MST treated)/(MST control)]×100

The values below come from patent US6022892A, “Bis-platinum complexes with polyamine ligands as antitumor agents” (Hoffman-La Roche Inc., priority 1998, dated 2000).

Bounds are passed on as bounds.

For the molecule `[Cl-].[Cl-].[Cl-].[NH2][Pt+]([NH2])([Cl])[NH]CCCC[NH2+]CCC[NH][Pt+]([NH2])([NH2])[Cl]` [Example 14, [trans-(PtCl(NH3)2)2-(-spermidine]Cl3], the A2780 IC50 1h with A2780 is < 0.005 µg/mL. Besides, in the assay with A2780/CDDP, the A2780/CDDP IC50 1h was 0.13 µg/mL. The L1210/CDDP IC50 72h in the assay on L1210/CDDP came out at 0.03 µg/mL.
Take `N.N.[Cl][Pt][Cl]` [cisplatin, reference compound]: the “T/C % (mean survival time treated/control)” value with L1210CDDP (6 mg/kg) was found to be 110%.
Consider “[trans-(PtCl(NH3)2)2 (-spermine]Cl4 [Example 16]”, for which the A2780 IC50 1h in the assay with A2780 was < 0.005 µg/mL. Besides, the “T/C % (mean survival time treated/control)” value in the assay with L1210CDDP (2 mg/kg) was 172%.
In the assay on L1210/CDDP, “[trans-(PtCl(NH3)2)2 H2 N--(CH2)6 --NH2 ](NO3)2 [reference compound]” had an L1210/CDDP IC50 72h of 0.1 µg/mL.
